“Also recorded” adds a separate entry of the source.
Tests used:
[1] = system: WIBR3 OCT4-GFP naïve hPSCs; experiment: Blastoid formation (cavitation) from 5i/L/A naïve hPSCs in Aggrewells; format: cell-based, human; conditions: for rate of cavitation on omission of the component from the blastoid media: component omitted/removed (Conditions 2-4), D7
Method: Naïve hPSCs were dissociated with Accutase for 5 minutes at 37° C. Single cell dissociate naïve stem cells and inactivate accutase enzymes with fibroblast medium. Centrifuge this suspension 1000 rpm for 5 minutes. Remove supernatant and wash once with DMEM/F12, centrifuge 1000 rpm for 5 minutes. Aspirate supernatant and resuspend in 2 mL of 5i/L/A medium. Remove iMEFs from the cell suspension by incubation on gelatin-coated plates for 30-45 minutes at 37° C. 5% CO2. Collect cells and count cells to plate 100,000 cells per 24 well Aggrewell (StemCell Technologies) well. Coat the aggrewells with Anti-adherence solution (StemCell Technologies) for 10 minutes at room temperature. Wash wells once with DMEM/F12, then add 1 mL of 5i/L/A medium. Add naïve stem cells to Aggrewells, 100,000 cells per 500 μL, total medium should be 1.5 mL per well. Centrifuge the plate 1000 rpm for 2 minutes for equal distribution of cell number per microwell. Incubate at 37° C. 5% CO2 and 5% 02 for one day. […]
Cavitation rate was determined by counting individual aggregates at 7 days of blastoid growth in at least 3 24-well wells per condition. Tile scan images of the entire well were stitched together and aggregates vs. cavitated aggregates were manually counted in ImageJ. […] Significance determined by a 1-way ANOVA with multiple comparisons. *p<0.05, **p<0.01.
Blastoid size was determined with ImageJ software by drawing a circle around the entire blastoid, and diameters determined by a single line drawn across the widest apparent part of the blastoid (day 7 n=1901; day 8 n=18). Inner cell mass size was determined by utilizing the OCT4-GFP channel and manually drawing around the brightest region of GFP+ areas (control n=152 blastoids; —CHIR n=130). Significance determined with Welch's t-test, ****p<0.0001.

[2] = system: 3D-cultured human blastoids (WIBR3 OCT4-GFP background); experiment: Post implantation WNT modulation of 3D-cultured blastoids; format: cell-based; conditions: for OCT4-GFP reporter area (ratio of OCT4-GFP area: total blastoid area; EPI compartment) / OCT4-GFP signal intensity / invasive trophoblast projections / overall blastoid size (area): 2 μM in N2B27+E2, D8 to D14, 3D ECM, analysed at D14, vs control; for CTB shell: 2 μM, 6 days of treatment, D14 of 3D culture
Source text: Blastoids can be transferred on either day 7 or day 8 of growth. Due to the inaccessibility of commercially available extracellular matrix products during the experimentation phases of this project, multiple matrices were utilized in this study-hESC qualified growth factor-reduced Matrigel (Corning), hESC qualified growth factor reduced Geltrex (Gibco), and Cultrex UltriMatrix reduced growth factor basement membrane extract (R&D, BME001). […] Matrices were thawed on ice and kept cold until crosslinking was desired. Matrices mixed together (Matrigel/geltrex) were mixed following thawing and plated into ibidi microwells (120 μL/well) (ibidi, 80826) or alternatively 96 well plates (40 μL/well). Matrices were solidified at 37° C. for 30 minutes. Wash matrices 2 times with DMEM/F12 before adding blastoids. Add N2B27+10 nM estradiol without antibiotics to each well. Plate desired numbers of blastoids to each well (3-5 in an ibidi microwell, 1-2 in a 96 well plate). Place the plate in the incubator (37° C., 5% CO2, 5% 02) for 24 hours. Replace media daily with N2B27+10 nM estradiol without antibiotics. If blastoids are added at 7 days, the following day they may be loosely attached. Wait approximately 28-30 hours following seeding to ensure blastoids are well anchored before changing medium. Polar TE side attaches and the ICM expands compared to the day before when properly attached. On the following day (day 9) the TE collapses. Migratory EVT emerge at day 13. Maintaining proper pH is important for blastoids post implantation, the medium should be at pH=7.2-7.4 by pre-equilibration in the incubator or use freshly made N2B27 that has not oxidized too excessively (media should be pink/orange in color, never purple). WIBR3 OCT4-GFP blastoids were grown to 7 days in blastoid generating conditions (see above) and blastoids with localized single ICM, continuous trophectoderm, and with a round blastocoel cavity were chosen by hand and plated upon a pre-formed 3D matrix (Cultrex UltriMatrix) formed with a 96 well plate (40 μL of Cultrex per well). 2 blastoids per well were plated among 10 wells for each condition in N2B27+1 mM Na Pyruvate+10 nM Estradiol (E2). Blastoids were allowed to attach for approximately 24-30 hours in the incubator (5% CO2, 5% O2, 37° C., 100% humidity). When blastoids attached, TE collapsed, and ICM expanded, medium was changed to N2B27+1 mM Na Pyruvate+10 nM E2+2 μM XAV939 or +2 μM CHIR99021. Media was changed daily and grown in a 37° C., 5% CO2, 5% O2 incubator. Blastoids were fixed in 4% paraformaldehyde as described above on day 14 of total blastoid growth.

Compound | TE expansion (ICM:TE ratio based on OCT4-GFP reporter activity) on omission of the component ([1]; component omitted (Condition 2)) | rate of cavitation on omission of the component from the blastoid media [1] | OCT4-GFP reporter area (ratio of OCT4-GFP area: total blastoid area; EPI compartment) [2] | OCT4-GFP signal intensity [2] | invasive trophoblast projections [2] | overall blastoid size (area) [2] | CTB shell [2]
Cc1c[nH]c(-c2cnc(NCCNc3ccc(C#N)cn3)nc2-c2ccc(Cl)cc2Cl)n1 [CHIR99021] | specifically promotes TE expansion | enhanced the rate of cavitation | reduced ratio of OCT4-GFP+ cells | diminished intensity of OCT4-GFP reporter activity | significantly fewer invasive trophoblast projections | larger; also recorded: increased | expansion of the CTB shell
LIF: recombinant human leukemia inhibitory factor (PeproTech) | – | without adversely affecting the rate of cavitation | – | – | – | – | –
Oc1nc(-c2ccc(C(F)(F)F)cc2)nc2c1CSCC2 [XAV939] | – | – | notable expansion | increase in signal intensity | significantly fewer invasive trophoblast projections | reduced | reduction of the CTB shell

— patent US20240352412A1, “METHODS AND SYSTEMS FOR EXTENDED CULTURE OF HUMAN BLASTOIDS TO POST-IMPLANTATION STAGES ON 3D MATRICES” (Washington University, priority 2023, published 2024)
